Earlier results, collected in US12048763B2, “Compositions and methods for treating sialorrhea” (priority 2021, dated 2024).

Conditions: by 6 months

C[N+]1(C)CCC(OC(=O)C(O)(c2ccccc2)C2CCCC2)C1 (stereo not shown) [glycopyrrolate]
participants no longer taking the drug due to adverse effects: 45%
